Results taken from patent US8916567B2, “Certain crystalline hydrates, pharmaceutical compositions thereof and methods for preparation and use thereof” (Universal Technology Alliance, Inc., priority 2009, dated 2014).

Tests used:
[1] = Solubility in different solvents according to Chinese Pharmacopeia (2005 edition); format: physicochemical; settings: for Result: at the given solute:solvent ratio
Protocol: The solubility of the (S)—[N-3-(3′-fluoro-4′-(4″-phenylpiperazinyl))phenyl-2-oxo-5-oxazolelidinyl]methylacetamide hydrates was tested with different solvents, and the test results are shown in Tables 15-19. The solubility was measured according to Chinese Pharmacopeia (2005 edition).

Staphylococcus aureus = test: Minimum inhibitory concentration (MIC) in vitro, agar dilution method, quality control strain; format: cell-based; settings: strain S. AT C C25923 (Table 7 No. 1); hydrate
Method in brief: (§1)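 Clinical isolates collected in Sichuan and Beijing (2007–2008) were tested by CLSI/NCCLS agar dilution. Compounds were dissolved in DMSO and diluted in sterile distilled water; MIC50, MIC90 and MIC range across strains were derived.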

[2] = test system: Staphylococcus aureus MSSA; test: Minimum inhibitory concentration (MIC) in vitro, agar dilution method; format: cell-based; settings: hydrate
Method in brief: as §1

E. feacium = test: as above; format: cell-based; settings: hydrate
Method in brief: as §1

S. epidermidis MRSE = test: as above; format: cell-based; settings: hydrate
Method in brief: as §1

S. epidermidis MSSE = test: as above; format: cell-based; settings: hydrate
Method in brief: as §1

[3] = test system: Staphylococcus aureus MRSA; test: as above; format: cell-based; settings: hydrate
Method in brief: as §1

E. feacalis = test: as above; format: cell-based; settings: hydrate
Method in brief: as §1

[4] = S. MSSA (11 strains), clinically isolated
[5] = E. feacium (5 strains), clinically isolated
[6] = S. ep MRSE (10 strains), clinically isolated
[7] = S. ep MSSE (10 strains), clinically isolated
[8] = S. MRSA (10 strains), clinically isolated
[9] = E. feacalis (5 strains), clinically isolated

Q: With `CC(=O)NC[C@H]1CN(c2ccc(N3CCN(c4ccccc4)CC3)c(F)c2)C(=O)O1` [1/12 hydrate, (S)—[N-3-(3′-fluoro-4′-(4″-phenylpiperazinyl))phenyl-2-oxo-5-oxazolidinyl]methyl acetamide 1/12 hydrate] as the compound, how does the “Solubility compared with the anhydride” value ([1]; different solvents) read?
A: sometimes more soluble than the anhydride

Q: What about the Result ([1]; solvent 0.1N Hydrochloric acid) of the same compound?
A: Dissolved

Q: And the Result ([1]; solvent 0.1N Sodium hydroxide)?
A: Insoluble

Q: What about the Result ([1]; solvent Acetonitrile) of the same compound?
A: Dissolved

Q: What about the Result ([1]; solvent Ethanol) of the same compound?
A: Dissolved

Q: What about the Result ([1]; solvent Methanol) of the same compound?
A: Dissolved

Q: What about the Result ([1]; solvent Water, hydrate) of the same compound?
A: Dissolved

Q: And the MIC (Staphylococcus aureus)?
A: 0.5 µg/mL

Q: What about the MIC50 [2, 4] of the same compound?
A: 0.5 µg/mL

Q: What about the MIC90 [2, 4] of the same compound?
A: 0.5 µg/mL

Q: And the MICrange [2, 4]?
A: 0.25 to 0.5 µg/mL

Q: What about the MIC ([2]; strain S. MSSA 123 (Table 7 No. 3)) of the same compound?
A: 0.5 µg/mL

Q: And the MIC ([2]; strain S. MSSA 187 (Table 7 No. 7))?
A: 0.5 µg/mL

Q: And the MIC ([2]; strain S. MSSA 195 (Table 7 No. 6))?
A: 0.5 µg/mL

Q: What about the MIC ([2]; strain S. MSSA 195 (Table 7 No. 12)) of the same compound?
A: 0.5 µg/mL

Q: And the MIC ([2]; strain S. MSSA 201 (Table 7 No. 11))?
A: 0.25 µg/mL

Q: What about the MIC ([2]; strain S. MSSA 232 (Table 7 No. 2)) of the same compound?
A: 0.5 µg/mL

Q: And the MIC ([2]; strain S. MSSA 275 (Table 7 No. 10))?
A: 1 µg/mL

Q: And the MIC ([2]; strain S. MSSA 466 (Table 7 No. 8))?
A: 0.25 µg/mL

Q: What about the MIC ([2]; strain S. MSSA 519 (Table 7 No. 9)) of the same compound?
A: 0.5 µg/mL

Q: What about the MIC ([2]; strain S. MSSA 520 (Table 7 No. 4)) of the same compound?
A: 0.5 µg/mL

Q: What about the MIC ([2]; strain S. MSSA 580 (Table 7 No. 5)) of the same compound?
A: 0.25 µg/mL

Q: And the MIC50 (E. feacium; [5])?
A: 0.5 µg/mL

Q: What about the MIC90 (E. feacium; [5]) of the same compound?
A: 1 µg/mL

Q: What about the MICrange (E. feacium; [5]) of the same compound?
A: 0.25 to 1 µg/mL

Q: What about the MIC (E. feacium; strain Efm 98 (Table 8 No. 21)) of the same compound?
A: 0.25 µg/mL

Q: What about the MIC (E. feacium; strain Efm 171 (Table 8 No. 25)) of the same compound?
A: 0.5 µg/mL

Q: What about the MIC (E. feacium; strain Efm 197 (Table 8 No. 22)) of the same compound?
A: 0.5 µg/mL

Q: What about the MIC (E. feacium; strain Efm N3 (Table 8 No. 23)) of the same compound?
A: 1 µg/mL

Q: What about the MIC (E. feacium; strain Efm N4 (Table 8 No. 24)) of the same compound?
A: 0.5 µg/mL

Q: And the MIC50 (S. epidermidis MRSE; [6])?
A: 0.25 µg/mL

Q: And the MIC90 (S. epidermidis MRSE; [6])?
A: 0.5 µg/mL

Q: And the MICrange (S. epidermidis MRSE; [6])?
A: 0.06 to 0.5 µg/mL

Q: And the MIC (S. epidermidis MRSE; strain S. ep MRSE4 (Table 8 No. 9))?
A: 0.125 µg/mL

Q: And the MIC (S. epidermidis MRSE; strain S. ep MRSE20 (Table 8 No. 6))?
A: 0.25 µg/mL

Q: And the MIC (S. epidermidis MRSE; strain S. ep MRSE87 (Table 8 No. 13))?
A: 0.25 µg/mL

Q: What about the MIC (S. epidermidis MRSE; strain S. ep MRSE90 (Table 8 No. 10)) of the same compound?
A: 0.125 µg/mL

Q: What about the MIC (S. epidermidis MRSE; strain S. ep MRSE101 (Table 8 No. 7)) of the same compound?
A: 0.06 µg/mL

Q: What about the MIC (S. epidermidis MRSE; strain S. ep MRSE105 (Table 8 No. 11)) of the same compound?
A: 0.25 µg/mL

Q: What about the MIC (S. epidermidis MRSE; strain S. ep MRSE140 (Table 8 No. 14)) of the same compound?
A: 0.5 µg/mL

Q: And the MIC (S. epidermidis MRSE; strain S. ep MRSE142 (Table 8 No. 12))?
A: 0.25 µg/mL

Q: What about the MIC (S. epidermidis MRSE; strain S. ep MRSE210 (Table 8 No. 15)) of the same compound?
A: 0.25 µg/mL

Q: What about the MIC (S. epidermidis MRSE; strain S. ep MRSE211 (Table 8 No. 8)) of the same compound?
A: 0.25 µg/mL

Q: What about the MIC50 (S. epidermidis MSSE; [7]) of the same compound?
A: 0.25 µg/mL

Q: And the MIC90 (S. epidermidis MSSE; [7])?
A: 0.5 µg/mL

Q: What about the MICrange (S. epidermidis MSSE; [7]) of the same compound?
A: 0.125 to 0.5 µg/mL

Q: And the MIC (S. epidermidis MSSE; strain S. ep MSSE87 (Table 7 No. 23))?
A: 0.125 µg/mL

Q: What about the MIC (S. epidermidis MSSE; strain S. ep MSSE88 (Table 8 No. 5)) of the same compound?
A: 0.5 µg/mL

Q: What about the MIC (S. epidermidis MSSE; strain S. ep MSSE113 (Table 7 No. 24)) of the same compound?
A: 0.25 µg/mL

Q: What about the MIC (S. epidermidis MSSE; strain S. ep MSSE116 (Table 7 No. 25)) of the same compound?
A: 0.125 µg/mL

Q: And the MIC (S. epidermidis MSSE; strain S. ep MSSE118 (Table 8 No. 2))?
A: 0.5 µg/mL

Q: And the MIC (S. epidermidis MSSE; strain S. ep MSSE119 (Table 7 No. 27))?
A: 0.125 µg/mL

Q: And the MIC (S. epidermidis MSSE; strain S. ep MSSE137 (Table 8 No. 4))?
A: 0.5 µg/mL

Q: What about the MIC (S. epidermidis MSSE; strain S. ep MSSE140 (Table 8 No. 3)) of the same compound?
A: 0.5 µg/mL

Q: And the MIC (S. epidermidis MSSE; strain S. ep MSSE142 (Table 7 No. 26))?
A: 0.5 µg/mL

Q: And the MIC (S. epidermidis MSSE; strain S. ep MSSE153 (Table 8 No. 1))?
A: 0.5 µg/mL

Q: And the MIC50 [3, 8]?
A: 0.5 µg/mL

Q: What about the MIC90 [3, 8] of the same compound?
A: 0.5 µg/mL

Q: And the MICrange [3, 8]?
A: 0.25 to 0.5 µg/mL

Q: What about the MIC ([3]; strain S. MRSA 29 (Table 7 No. 15)) of the same compound?
A: 1 µg/mL

Q: And the MIC ([3]; strain S. MRSA 101 (Table 7 No. 14))?
A: 0.5 µg/mL

Q: And the MIC ([3]; strain S. MRSA 201 (Table 7 No. 13))?
A: 0.5 µg/mL

Q: And the MIC ([3]; strain S. MRSA B27 (Table 7 No. 21))?
A: 0.5 µg/mL

Q: And the MIC ([3]; strain S. MRSA B105 (Table 7 No. 17))?
A: 0.5 µg/mL

Q: And the MIC ([3]; strain S. MRSA B143 (Table 7 No. 19))?
A: 0.5 µg/mL

Q: What about the MIC ([3]; strain S. MRSA B151 (Table 7 No. 20)) of the same compound?
A: 0.5 µg/mL

Q: What about the MIC ([3]; strain S. MRSA B164 (Table 7 No. 16)) of the same compound?
A: 0.5 µg/mL

Q: And the MIC ([3]; strain S. MRSA B199 (Table 7 No. 22))?
A: 1 µg/mL

Q: And the MIC ([3]; strain S. MRSA B617 (Table 7 No. 18))?
A: 0.25 µg/mL

Q: What about the MIC50 (E. feacalis; [9]) of the same compound?
A: 0.125 µg/mL

Q: And the MIC90 (E. feacalis; [9])?
A: 0.25 µg/mL

Q: What about the MICrange (E. feacalis; [9]) of the same compound?
A: 0.06 to 0.25 µg/mL

Q: What about the MIC (E. feacalis; strain Efa 116 (Table 8 No. 16)) of the same compound?
A: 0.25 µg/mL

Q: And the MIC (E. feacalis; strain Efa 907 (Table 8 No. 19))?
A: 0.06 µg/mL
